Test results as given in paper PMC4942611, “Promising Tools in Prostate Cancer Research: Selective Non-Steroidal Cytochrome P450 17A1 Inhibitors” (Scientific Reports, 2016).
Where two headings read alike, the source gives them in different places.

Key:
CYP17A1 = target: T1, CYP17A1 (Homo sapiens, UniProt P05093); assay: H295R cell assay, CYP17A1 hydroxylase and lyase activity; type: cell-based; conditions: for IC50: 48 hours, mean over 6 to 15 measurements ± standard error
T1 construct: endogenous in cells; host or cells: H295R
T1 sequence (P05093 1-508): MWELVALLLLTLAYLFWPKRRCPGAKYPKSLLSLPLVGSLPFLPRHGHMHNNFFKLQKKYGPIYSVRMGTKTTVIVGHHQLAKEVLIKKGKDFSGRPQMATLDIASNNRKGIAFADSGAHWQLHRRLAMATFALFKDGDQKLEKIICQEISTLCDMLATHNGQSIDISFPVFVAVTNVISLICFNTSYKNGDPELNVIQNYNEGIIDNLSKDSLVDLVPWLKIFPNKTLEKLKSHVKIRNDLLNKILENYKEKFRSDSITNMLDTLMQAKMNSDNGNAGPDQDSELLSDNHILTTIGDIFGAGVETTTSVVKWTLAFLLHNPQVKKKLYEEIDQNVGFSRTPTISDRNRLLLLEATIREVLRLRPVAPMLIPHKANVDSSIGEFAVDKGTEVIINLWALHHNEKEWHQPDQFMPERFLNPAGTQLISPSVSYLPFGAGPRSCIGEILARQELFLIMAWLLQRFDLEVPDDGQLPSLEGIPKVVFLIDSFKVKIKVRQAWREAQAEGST
Experimental: (§1) The H295R steroid hormone synthesis assay was performed according to the OECD validation guideline. Cells were cultured in DMEM/F12 media supplemented with 1% ITS-premix and 2.5% Nu-serum at 37 °C with a 5% CO2 atmosphere. The cells were only used for experiments between passage […]. During exposure experiments, cells were grown in 24 well plates with a density of 3 × 10^5 cells/mL. […] To avoid interference from low levels of steroid hormones present in the Nu-serum, the exposure experiment was conducted with serum-free media. Each compound was tested at a minimum of seven concentration levels using three or more replicates and the experiment was repeated on two different days (n = 6–15). On each test plate a solvent control (SC) (medium with 0.1% DMSO) was included in triplicate and the maximal concentration of DMSO in the cell medium was 0.1%[49]. After 48 hours of incubation in presence of the test compounds, 950 μL of the medium was carefully removed and internal standards (50 μl of 0.1 μg/μl solution containing deuterated steroid analogues) were added. Samples were stored at −20 °C for later analysis.
(§2) Steroid extraction and clean-up were performed by double protein precipitation. First, 900 μL of cold acetonitrile were added to the samples, which were then vortexed and centrifuged at ~9500 × g for 10 minutes. Second, 900 μL cold methanol was added to the supernatant and the mixture was vortexed and centrifuged at 1500 × g for 10 minutes. Finally, the supernatant was collected and concentrated to ~1 mL under a gentle stream of nitrogen at 60 °C.
(§3) For on-line solid phase extraction (SPE) of steroids, a total of 100 μL was injected on a binary 1290 Agilent Infinity Series system and a binary 1100 Agilent HPLC pump were used in combination (Agilent Technologies, Palo Alto, CA, USA). For online clean-up, a C18 enrichment column (μbondapak® C18, 3.9 × 20 mm, 10 μm, Waters) was used. The enrichment column was connected to the autosampler through the TTC switching valve (two positions, 6 ports). Between the autosampler and the TTC switching valve a 0.3 μm in-line filter (1290 infinity in-line filter, Agilent) was installed. Separation of steroid hormones was performed using a C18 analytical column (Kinetex, 2.6 μm C18 100 Å, 75 × 2.1 mm, Phenomenex, USA). An isocratic flow of 1 mL/min H2O:methanol:formic acid at 90:10:0.1 (v/v/v) was generated by the 1100 pump which was connected to the autosampler. The 1290 pump performed a gradient elution with a flow rate of 0.3 mL which was connected to the TTC switching valve. Mobile phase A and B were composed of H2O with 0.1% formic acid (v/v) and pure methanol, respectively. The elution gradient was maintained at 10% B for the first 2 min, changed to 10.0–30.0% from 2.0 to 2.2 min, 30.0–60.0% from 2.2 to 8.0 min, maintained at 60.0% from 8.0 to 10.0 min, increased to 60.0–85.0% from 10.0 to 12.30 min, 85.0–99.5% from 12.3 to 12.5 min and held at 99.5% from 12.5 to 14.8 min, before re-equilibrating the column until 16 minutes.
(§4) For detection, an AB SCIEX 4500 QTRAP mass spectrometer (Applied Biosystems, Foster City, CA, USA) equipped with an atmospheric pressure chemical ionization (APCI) Turbo V source was used. Multiple reaction monitoring (MRM) was performed in positive mode during the analysis with a targeted scan time of 0.8 sec. Nitrogen was applied as curtain, collision, and ion source gases.

CYP21A2 = target: T2, CYP21A2 (Homo sapiens, UniProt P08686); assay: H295R cell assay, CYP21A2 activity; type: cell-based; conditions: H295R cells
T2 sequence (P08686 1-495): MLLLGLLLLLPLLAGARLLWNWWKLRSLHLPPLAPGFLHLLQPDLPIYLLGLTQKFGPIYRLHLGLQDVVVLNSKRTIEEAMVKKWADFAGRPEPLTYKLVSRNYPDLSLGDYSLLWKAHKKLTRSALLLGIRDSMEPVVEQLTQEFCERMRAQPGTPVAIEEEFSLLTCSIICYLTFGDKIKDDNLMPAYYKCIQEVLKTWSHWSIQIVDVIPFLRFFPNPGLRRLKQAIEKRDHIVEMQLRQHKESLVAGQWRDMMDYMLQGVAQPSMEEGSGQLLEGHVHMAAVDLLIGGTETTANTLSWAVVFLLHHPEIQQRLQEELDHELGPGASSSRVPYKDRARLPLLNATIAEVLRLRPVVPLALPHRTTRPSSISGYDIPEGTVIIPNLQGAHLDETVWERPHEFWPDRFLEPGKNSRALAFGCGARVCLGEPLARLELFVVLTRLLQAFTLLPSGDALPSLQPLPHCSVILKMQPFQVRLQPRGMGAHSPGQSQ
Experimental: This cellular assay was also used to evaluate inhibitor selectivity.
as §1

H295R cell line = assay: H295R steroid hormone synthesis assay, production of steroidal hormones; type: cell-based, human; conditions: for IC50: Homo sapiens, NCI-H295R
Experimental: as §1, §2, §3, §4

[1] = based on conversion of 17-OH-PRE into DHEA, read-out: IC50 lyase, H295R system
[2] = based on conversion of PRE into 17-OH-PRE, read-out: IC50 hydroxylase, H295R system
[3] = H295R, progestagens, EC200 ± standard error
[4] = H295R, androgens, read-out: AN IC50
[5] = H295R, androgens, read-out: DHEA IC50
[6] = H295R, androgens, read-out: TS IC50
[7] = H295R, corticosteroids, read-out: 11deoxy-COR IC50
[8] = H295R, corticosteroids, read-out: 11deoxy-COS IC50
[9] = H295R, corticosteroids, read-out: COR IC50
[10] = H295R, corticosteroids, read-out: CORNE IC50
[11] = H295R, estrogens, read-out: E1 IC50
[12] = H295R, estrogens, read-out: E-E2 IC50
[13] = H295R, progestagens, mean over 6 to 15 measurements ± standard error, read-out: PREG IC50
[14] = H295R, progestagens, read-out: 17OH-PREG IC50
[15] = H295R, progestagens, read-out: 17OH-PROG IC50

## Cc1ccc(-c2csc(-c3cccnc3)n2)c(C)c1 [Compound 1]
CYP17A1; [1]
  IC50: 94 ± 30 nM
CYP17A1; [2]
  IC50: 830 ± 80 nM
CYP21A2
  Inhibitor concentrations at which CYP21A2 is inhibited: greater than 1000 nM
H295R cell line; H295R cells
  Effect on the CYP17A1 substrates pregnenolone and progesterone: dose-dependent increases
H295R cell line; [3]
  PREG EC200: 500 ± 70 nM
  PROG EC200: 146 ± 7 nM
H295R cell line; H295R, EC200 ± standard error
  11deoxy-COS EC200: 146 ± 4 nM
  COS EC200: 56 ± 1 nM
H295R cell line; H295R cells, read-out: IC50 values for progestagens and corticosteroids (range)
  IC50: 300 to 1200 nM
H295R cell line; [4]
  IC50: 68 ± 2 nM
H295R cell line; [5]
  IC50: 94 ± 30 nM
H295R cell line; [6]
  IC50: 52 ± 2 nM
H295R cell line; [7]
  IC50: 480 ± 10 nM
H295R cell line; [8]
  IC50: 310 ± 60 nM
H295R cell line; [9]
  IC50: 1200 ± 100 nM
H295R cell line; [10]
  IC50: 700 ± 100 nM
H295R cell line; [11]
  IC50: 220 ± 10 nM
H295R cell line; [12]
  IC50: 235 ± 6 nM
H295R cell line; [13]
  IC50: 390 ± 70 nM
H295R cell line; [14]
  IC50: 830 ± 80 nM
H295R cell line; [15]
  IC50: 800 ± 200 nM

## CCCn1nnc2cc(-c3cc(-c4ccncc4)c(C#N)c(N)n3)ccc21 [Compound 2]
CYP17A1; [1]
  IC50: 7.4 ± 0.1 nM
CYP17A1; [2]
  IC50: 52 ± 4 nM
CYP21A2
  Inhibitor concentrations at which CYP21A2 is inhibited: above 1000 nM
H295R cell line; H295R cells
  Effect on the CYP17A1 substrates pregnenolone and progesterone: dose-dependent increases
H295R cell line; [3]
  PREG EC200: 19 ± 4 nM
  PROG EC200: 32 ± 4 nM
H295R cell line; [4]
  IC50: 4.3 ± 0.1 nM
H295R cell line; [5]
  IC50: 7.4 ± 0.1 nM
H295R cell line; [6]
  IC50: 3.3 ± 0.2 nM
H295R cell line; [7]
  IC50: 54 ± 5 nM
H295R cell line; [8]
  IC50: 23.8 ± 0.9 nM
H295R cell line; [9]
  IC50: 36 ± 4 nM
H295R cell line; [10]
  IC50: 23 ± 1 nM
H295R cell line; H295R, corticosteroids, read-out: COS IC50
  IC50: 36 ± 4 nM
H295R cell line; [11]
  IC50: 19 ± 3 nM
H295R cell line; [12]
  IC50: 50 ± 10 nM
H295R cell line; [13]
  IC50: 15 ± 3 nM
H295R cell line; [14]
  IC50: 52 ± 4 nM
H295R cell line; [15]
  IC50: 20 ± 1 nM

## C[C@]12CC[C@H](O)CC1=CC[C@@H]1[C@@H]2CC[C@]2(C)C(c3cccnc3)=CC[C@@H]12 [abiraterone, reference compound]
CYP17A1; H295R cells
  Inhibitor concentrations at which CYP17A1 is inhibited (only CYP17A1 affected): 2.5 to 10 nM
CYP17A1; [2]
  IC50: 9.4 ± 0.3 nM
CYP21A2
  Inhibitor concentrations at which CYP21A2 is inhibited: 30 to 3000 nM
H295R cell line; [3]
  PREG EC200: 7.3 ± 0.3 nM
  PROG EC200: 1.0 ± 0.1 nM
H295R cell line; [4]
  IC50: 0.5 nM
H295R cell line; [5]
  IC50: 1.8 ± 0.1 nM
H295R cell line; [6]
  IC50: 0.2 nM
H295R cell line; [7]
  IC50: 5.3 ± 0.1 nM
H295R cell line; [9]
  IC50: 5 ± 0.4 nM
H295R cell line; [10]
  IC50: 2.5 ± 0.1 nM
H295R cell line; [11]
  IC50: 0.8 ± 0.1 nM
H295R cell line; [12]
  IC50: 408 ± 60 nM
H295R cell line; [13]
  IC50: 5.9 ± 0.5 nM
H295R cell line; H295R, progestagens, mean over 6 to 15 measurements ± standard error, read-out: PROG IC50
  IC50: 181 ± 5 nM
H295R cell line; [14]
  IC50: 9.7 ± 0.3 nM
H295R cell line; [15]
  IC50: 6.3 ± 0.2 nM
H295R cell line; H295R, calculated on low concentrations of abiraterone (first part of the Gaussian-like curve), read-out: 11deoxy-COS IC50
  IC50: 2.6 ± 0.5 nM
H295R cell line; H295R, calculated on low concentrations of abiraterone (first part of the Gaussian-like curve), read-out: COS IC50
  IC50: 2.9 ± 0.5 nM
H295R cell line; H295R, calculated using high concentrations of abiraterone (second part of the Gaussian-like curve), read-out: 11deoxy-COS IC50
  IC50: 240 ± 20 nM
